Laboratory results: ChEMBL document CHEMBL6071129, “Strategies that regulate Hippo signaling pathway for novel anticancer therapeutics” (Eur J Med Chem, 2024)
Each block holds one molecule with its values, some of them ahead of it.

How the values were obtained:
[1] = Inhibition of TEAD (unknown origin) by YAP reporter assay; set-up: species or system Homo sapiens
[2] = tested on: NCI-H2052; experiment: Antiproliferative activity against human NCI-H2052 cells; format: functional, cell-based
[3] = Antiproliferative activity against CMT9 cells incubated for 48 hrs; format: functional; details: Canis lupus familiaris, read-out: ED50 (the source's name)
[4] = tested on: HuCCT-1; experiment: Antiproliferative activity against human HuCCT-1 cells incubated for 24 hrs by WST-1 assay; format: functional, cell-based; details: HuCCT-1, 24 h
[5] = Antiproliferative activity against CMT47 cells incubated for 48 hrs; format: functional; details: Canis lupus familiaris, read-out: ED50 (the source's name)
[6] = tested on: MDA-MB-231; experiment: Antiproliferative activity against human MDA-MB-231 cells incubated for 96 hrs by MTT assay; format: functional, cell-based; details: MDA-MB-231, 96 h
[7] = Antiproliferative activity against human HBC5 cells incubated for 96 hrs by MTT assay; format: functional, cell-based; details: HBC5, 96 h
[8] = Antiproliferative activity against human HBC4 cells incubated for 96 hrs by MTT assay; format: functional, cell-based; details: HBC4, 96 h
[9] = Inhibition of His-tagged TEAD1 (unknown origin) to TAZ (unknown origin) protein-protein interaction preincubated for 30 mins followed by biotinylated YAP addition and measured after 60 mins by TR-FRET assay; set-up: species or system Homo sapiens
[10] = Inhibition of His-tagged TEAD4 (unknown origin) to TAZ (unknown origin) protein-protein interaction preincubated for 30 mins followed by biotinylated YAP addition and measured after 60 mins by TR-FRET assay; set-up: species or system Homo sapiens
[11] = Inhibition of His-tagged TEAD1 (unknown origin) to YAP (unknown origin) protein-protein interaction preincubated for 30 mins followed by biotinylated YAP addition and measured after 60 mins by TR-FRET assay; set-up: species or system Homo sapiens
[12] = tested on: Transcriptional enhancer factor TEF-1-Lipid; experiment: Inhibition of His-tagged TEAD1 (unknown origin) to lipid (unknown origin) interaction preincubated for 30 mins followed by biotinylated lipid addition and measured after 60 mins by TR-FRET assay; set-up: species or system Homo sapiens
[13] = tested on: Transcriptional enhancer factor TEF-5-Lipid; experiment: Inhibition of His-tagged TEAD3 (unknown origin) to lipid (unknown origin) interaction preincubated for 30 mins followed by biotinylated lipid addition and measured after 60 mins by TR-FRET assay; set-up: species or system Homo sapiens
[14] = tested on: Transcriptional enhancer factor TEF-3-Lipid; experiment: Inhibition of His-tagged TEAD4 (unknown origin) to lipid (unknown origin) interaction preincubated for 30 mins followed by biotinylated lipid addition and measured after 60 mins by TR-FRET assay; set-up: species or system Homo sapiens
[15] = Inhibition of His-tagged TEAD3 (unknown origin) to TAZ (unknown origin) protein-protein interaction preincubated for 30 mins followed by biotinylated YAP addition and measured after 60 mins by TR-FRET assay; set-up: species or system Homo sapiens
[16] = Inhibition of His-tagged TEAD2 (unknown origin) to TAZ (unknown origin) protein-protein interaction preincubated for 30 mins followed by biotinylated YAP addition and measured after 60 mins by TR-FRET assay; set-up: species or system Homo sapiens
[17] = tested on: Transcriptional enhancer factor TEF-4-Lipid; experiment: Inhibition of His-tagged TEAD2 (unknown origin) to lipid (unknown origin) interaction preincubated for 30 mins followed by biotinylated lipid addition and measured after 60 mins by TR-FRET assay; set-up: species or system Homo sapiens
[18] = Inhibition of His-tagged TEAD3 (unknown origin) to YAP (unknown origin) protein-protein interaction preincubated for 30 mins followed by biotinylated YAP addition and measured after 60 mins by TR-FRET assay; set-up: species or system Homo sapiens
[19] = Inhibition of His-tagged TEAD4 (unknown origin) to YAP (unknown origin) protein-protein interaction preincubated for 30 mins followed by biotinylated YAP addition and measured after 60 mins by TR-FRET assay; set-up: species or system Homo sapiens
[20] = Inhibition of His-tagged TEAD2 (unknown origin) to YAP (unknown origin) protein-protein interaction preincubated for 30 mins followed by biotinylated YAP addition and measured after 60 mins by TR-FRET assay; set-up: species or system Homo sapiens
[21] = tested on: NCI-H1975; experiment: Antiproliferative activity against human NCI-H1975 cells incubated for 48 hrs by SRB assay; format: functional, cell-based; details: NCI-H1975, 48 h
[22] = tested on: NCI-H460; experiment: Antiproliferative activity against human NCI-H460 cells incubated for 48 hrs by SRB assay; format: functional, cell-based; details: NCI-H460, 48 h
[23] = tested on: Lewis lung carcinoma cell line; experiment: Antiproliferative activity against mouse Lewis lung carcinoma cell line incubated for 48 hrs by SRB assay; format: functional, cell-based
[24] = Antiproliferative activity against human OACP cells incubated for 72 hrs by MTS assay; format: functional, cell-based
[25] = Antiproliferative activity against human SKGT4 cells incubated for 72 hrs by MTS assay; format: functional, cell-based; details: SKGT4, 72 h
[26] = Antiproliferative activity against human JHESO cells incubated for 72 hrs by MTS assay; format: functional, cell-based
[27] = Antiproliferative activity against human FLO-1 cells incubated for 72 hrs by MTS assay; format: functional, cell-based; details: FLO-1, 72 h
[28] = tested on: SGC-7901; experiment: Antiproliferative activity against human SGC-7901 cells incubated for 48 hrs by MTT assay; format: functional, cell-based; details: SGC-7901, 48 h
[29] = tested on: HGC-27; experiment: Antiproliferative activity against human HGC-27 cells incubated for 48 hrs by MTT assay; format: functional, cell-based; details: HGC-27, 48 h
[30] = tested on: MGC-803; experiment: Antiproliferative activity against human MGC-803 cells incubated for 48 hrs by MTT assay; format: functional, cell-based; details: MGC-803, 48 h
[31] = tested on: PC-3; experiment: Antiproliferative activity against human PC-3 cells incubated for 48 hrs by MTT assay; format: functional, cell-based; details: PC-3, 48 h
[32] = tested on: MCF7; experiment: Antiproliferative activity against human MCF7 cells incubated for 48 hrs by MTT assay; format: functional, cell-based; details: MCF7, 48 h
[33] = tested on: HCT-116; experiment: Antiproliferative activity against human HCT-116 cells incubated for 48 hrs by MTT assay; format: functional, cell-based; details: HCT-116, 48 h
[34] = Antiproliferative activity against human A2780/CP70 cells incubated for 48 hrs by MTT assay; format: functional, cell-based; details: A2780/CP70, 48 h
[35] = tested on: A2780; experiment: Antiproliferative activity against human A2780 cells incubated for 48 hrs by MTT assay; format: functional, cell-based; details: A2780, 48 h
[36] = Antiproliferative activity against human HCA46 cells incubated for 48 hrs by MTT assay; format: functional, cell-based; details: HCA46, 48 h
[37] = tested on: HT-29; experiment: Antiproliferative activity against human HT-29 cells incubated for 48 hrs by MTT assay; format: functional, cell-based; details: HT-29, 48 h
[38] = tested on: A549; experiment: Antiproliferative activity against human A549 cells incubated for 48 hrs by SRB method; format: functional, cell-based; details: A549, 48 h
[39] = tested on: NCI-H1975; experiment: Antiproliferative activity against human NCI-H1975 cells incubated for 48 hrs by SRB method; format: functional, cell-based; details: NCI-H1975, 48 h
[40] = tested on: NCI-H441; experiment: Antiproliferative activity against human NCI-H441 cells incubated for 48 hrs by SRB method; format: functional, cell-based; details: NCI-H441, 48 h
[41] = tested on: OVCAR-8; experiment: Antiproliferative activity against human OVCAR-8 cells by CellTiter-Glo luminescent cell viability assay; format: functional, cell-based
[42] = Antiproliferative activity against human HCC1576 cells by CellTiter-Glo luminescent cell viability assay; format: functional, cell-based
[43] = Antiproliferative activity against human VMRC-LCD cells by CellTiter-Glo luminescent cell viability assay; format: functional, cell-based
[44] = Antiproliferative activity against human HCC1576 cells assessed as minimum efficacy by CellTiter-Glo luminescent cell viability assay; format: functional
[45] = tested on: OVCAR-8; experiment: Antiproliferative activity against human OVCAR-8 cells assessed as minimum efficacy by CellTiter-Glo luminescent cell viability assay; format: functional

Structure (SMILES): CC(C)c1c(C(=O)Nc2ccccc2)c(-c2ccccc2)c(-c2ccc(F)cc2)n1CC[C@@H](O)C[C@@H](O)CC(=O)O [ATORVASTATIN]
EC50 [3]: 23500 nM
IC50 [4]: < 50000 nM
EC50 [5]: 7000 nM

Structure (SMILES): CC(C)n1c(/C=C/[C@H](O)C[C@H](O)CC(=O)O)c(-c2ccc(F)cc2)c2ccccc21
EC50 [3]: 9950 nM
EC50 [5]: 950 nM
IC50 [6]: < 10000 nM
IC50 [7]: < 10000 nM
IC50 [8]: < 10000 nM

Structure (SMILES): C[C@H]1[C@H](OC(=O)CCC(=O)O)O[C@@H]2O[C@@]3(C)CC[C@H]4[C@H](C)CC[C@@H]1[C@@]24OO3 [ARTESUNATE]
IC50 [21]: 4020 nM
IC50 [22]: 16100 nM
IC50 [23]: 11000 nM

Structure (SMILES): O=S(=O)(c1ccc2c(c1)C(=NO)c1cc(S(=O)(=O)N3CCCCC3)ccc1-2)N1CCCCC1
IC50 [24]: < 1000 nM
IC50 [25]: < 1000 nM
IC50 [26]: < 1000 nM
IC50 [27]: < 1000 nM

Structure (SMILES): Cc1cc2c(C(C)C)c(O)c(O)c(C=O)c2c(O)c1-c1c(C)cc2c(C(C)C)c(O)c(O)c(C=O)c2c1O
IC50 [38]: 10000 nM
IC50 [39]: 6770 nM
IC50 [40]: 19900 nM

Second part, led by results:

IC50 [1]: 391 nM
IC50 [2]: 2030 nM
Structure (SMILES): CC(NC(=O)c1cc2nc(N(C)C)n(-c3ccc(Br)cc3)c2s1)c1ccccn1 (configuration not stated)

IC50 [6]: < 10000 nM
Structure (SMILES): Cc1nc(Nc2ncc(C(=O)Nc3c(C)cccc3Cl)s2)cc(N2CCN(CCO)CC2)n1 [DASATINIB ANHYDROUS]
IC50 [7]: < 10000 nM

IC50 [9]: 50 nM
IC50 [10]: 80 nM
IC50 [11]: 30 nM
IC50 [12]: 30 nM
IC50 [13]: 40 nM
IC50 [14]: 50 nM
IC50 [15]: 40 nM
IC50 [16]: 10 nM
IC50 [17]: 20 nM
IC50 [18]: 50 nM
IC50 [19]: 210 nM
IC50 [20]: 10 nM
Structure (SMILES): N#C[C@@H]1CCN(C(=O)c2cnn3c(=O)cc(-c4ccc(C5CCCCC5)cc4)[nH]c23)C1

IC50 [28]: 380 nM
IC50 [30]: 360 nM
IC50 [31]: 1040 nM
IC50 [32]: 810 nM
IC50 [33]: 700 nM
Structure (SMILES): COc1ccc(S(=O)(=O)N(Cc2nc(C)c3ccccc3n2)c2cc(OC)c(OC)c(OC)c2)cc1
IC50 [29]: 460 nM

IC50 [35]: 3800 nM
IC50 [33]: 4170 nM
IC50 [37]: 2680 nM
Structure (SMILES): O=C1C=C(Nc2ccc(O)cc2)C(=O)c2ccccc21
IC50 [34]: 5350 nM
IC50 [36]: 19800 nM

EC50 [41]: 200 nM
IC50 [9]: 40 nM
IC50 [10]: 30 nM
IC50 [11]: 40 nM
IC50 [12]: 50 nM
IC50 [13]: 40 nM
IC50 [14]: > 20 nM
IC50 [15]: 60 nM
IC50 [16]: 10 nM
IC50 [17]: 20 nM
IC50 [18]: 110 nM
IC50 [19]: 50 nM
IC50 [20]: 10 nM
Structure (SMILES): O=C(c1c(-c2cnccn2)nn2c(=O)cc(-c3ccc(C4CCCCC4)cc3)[nH]c12)N1CC(CF)C1
EC50 [42]: 190 nM
EC50 [43]: > 50000 nM
Emin [44]: 67%
Emin [45]: 84%
